Reference: patent US10307413B2, “Tetrahydro- and dihydro-isoquinoline PRMT5 inhibitors and uses thereof” (Epizyme, Inc., priority 2013, dated 2019)

Experiments:
[1] = tested on: symmetric di-methyl arginine in Z-138 cells; assay: Z-138 Methylation Assay (In Cell Western for symmetric di-methyl arginine and DNA content); format: cell-based; details: Homo sapiens, read-out: ICW EC50
Procedure, shortened: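 In-cell western: symmetric di-methyl arginine signal ratioed to DRAQ5 DNA content after 96 h compound exposure of Z-138 cells seeded at 50,000 cells/mL.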

Z-138 cell line = assay: Z-138 Proliferation Assay (Cell Titer Glo, 5 days); format: cell-based; details: Homo sapiens, 120 h; Z-138 cells, 5 days; read-out: Proliferation EC50
Procedure, shortened: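 Viability via CellTiter-Glo luminescence (ATP) after 5-day incubation at 37 °C, 5% CO2. Compounds tested in triplicate, nine 3-fold steps, highest final concentration 20 μM in 0.2% DMSO; 50% inhibitory concentration by 4-parameter fit of normalized curves.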

EC50 [1] [nM] | Structure (SMILES) | EC50 (Z-138 cell line) [nM]
< 100 | Cc1ccc2cc(C(=O)NCC(O)CN3CCc4ccccc4C3)ccc2n1 (centres unmarked) [Compound 84, N-(3-(3,4-dihydroisoquinolin-2(1H)-yl)-2-hydroxypropyl)-2-methylquinoline-6-carboxamide] | 1000 to 10000
101 to 1000 | CN1CC(Nc2cc(C(=O)NC[C@H](O)CN3CCc4ccccc4C3)ncn2)C1 [Compound 281] | 10000 to 50000
< 100 | O=C(NCC(O)CN1CCc2ccccc2C1)c1cccc(NC2CCN(CC(F)(F)F)CC2)c1 (centres unmarked) [Compound 126] | 1000 to 10000
101 to 1000 | O=C(NC[C@H](O)CN1CCc2ccccc2C1)c1cc(NC2CCNCC2)ncn1 [Compound 180] | 10000 to 50000
101 to 1000 | O=C(NCC(O)CN1CCc2ccccc2C1)c1cccc(OC2CCNC2)c1 (centres unmarked) [Compound 119] | 1000 to 10000
< 100 | O=C(NC[C@H](O)CN1CCc2ccccc2C1)c1ccnc(OC2CCNCC2)c1 [Compound 229] | 1000 to 10000
< 100 | CC(=O)N(C)CCNc1cc(C(=O)NC[C@H](O)CN2CCc3ccccc3C2)ccn1 [Compound 315] | 101 to 1000
< 100 | O=C(NCC(O)CN1CCc2ccccc2C1)c1ccc(OC2CCN(CC(F)(F)F)C2)cc1 (centres unmarked) [Compound 199] | 1000 to 10000
< 100 | CC(=O)N1CC[C@@H](Nc2cccc(C(=O)NC[C@H](O)CN3CCc4ccccc4C3)c2)C1 [Compound 293] | < 100
101 to 1000 | O=C(NC[C@@H](O)CN1CCc2ccccc2C1)c1cccc(NC2CCOCC2)c1 [Compound 43] | 1000 to 10000
< 100 | O=C(NC[C@H](O)CN1CCc2ccccc2C1)c1cccc(NC2CCN(CC(F)(F)F)CC2)c1 [Compound 217] | 101 to 1000
101 to 1000 | O=C(NCC(O)CN1CCc2ccccc2C1)c1cccc(CN2CCNCC2)c1 (centres unmarked) [Compound 29] | 1000 to 10000
101 to 1000 | CN(CC(O)CN1CCc2ccccc2C1)C(=O)c1cccc(NC2CCOCC2)c1 (centres unmarked) [Compound 71] | 1000 to 10000
101 to 1000 | O=C(NC[C@H](O)CN1CCc2ccccc2C1)c1ccc2[nH]cnc2c1 [Compound 294] | 1000 to 10000
< 100 | Cc1c(NC2CCOCC2)cccc1C(=O)NCC(O)CN1CCc2ccccc2C1 (centres unmarked) [Compound 40, N-(3-(3,4-dihydroisoquinolin-2(1H)-yl)-2-hydroxypropyl)-2-methyl-3-((tetrahydro-2H-pyran-4-yl)amino)benzamide] | 1000 to 10000
101 to 1000 | Cn1nc(C(=O)NCC(O)CN2CCc3ccccc3C2)cc1NC1CCOCC1 (centres unmarked) [Compound 312] | 1000 to 10000
101 to 1000 | CN1CCN(Cc2cccc(C(=O)NCC(O)CN3CCc4ccccc4C3)c2)C(CO)C1 (centres unmarked) [Compound 115] | > 20000
< 100 | CN(c1cc(C(=O)NC[C@H](O)CN2CCc3ccccc3C2)ccn1)C1CCOCC1 [Compound 324] | 101 to 1000
< 100 | C[C@H]1COCCC1Nc1cccc(C(=O)NC[C@H](O)CN2CCc3ccccc3C2)c1 (some centres unmarked) [Compound 213] | 101 to 1000
< 100 | O=C(NCC(O)CN1CCc2ccccc2C1)c1cc(NC2CCOCC2)ncn1 (centres unmarked) [Compound 63] | 101 to 1000
< 100 | CN(c1cc(C(=O)NC[C@H](O)CN2CCc3ccccc3C2)ncn1)C1CCOCC1 [Compound 261] | 1000 to 10000
101 to 1000 | O=C(NC[C@H](O)CN1CCc2ccccc2C1)c1ccnc(NC2CCNCC2)c1 [Compound 200] | 10000 to 50000
101 to 1000 | CS(=O)(=O)N1CCC(Oc2cncc(C(=O)NC[C@H](O)CN3CCc4ccccc4C3)c2)CC1 [Compound 290] | 10000 to 50000
101 to 1000 | O=C(NCC(O)CN1CCc2ccccc2C1)c1cccc(NC2CCCOC2)c1 (centres unmarked) [Compound 60] | 1000 to 10000
< 100 | O=C(NC[C@H](O)CN1CCc2ccccc2C1)c1cc(NC2CCOC2)ncn1 (some centres unmarked) [Compound 230] | 101 to 1000
